Measurements published in patent US20150307520A1, “NOVEL HETEROARYL AND HETEROCYCLE COMPOUNDS, COMPOSITIONS AND METHODS THEREOF” (HUTCHISON MEDIPHARMA LIMITED, priority 2012, published 2015).
pIC50: −log10 of the molar value.

Experiments:
Format in all cases: biochemical
p110β/p85α = p110β/p85α (Homo sapiens, UniProt P42338); test: Transcreener KINASE Assay, kinase inhibition of p110β/p85α; conditions: for PI3Kβ IH % @ 1 uM: 1 uM test compound; for pIC50: read-out: PI3Kβ IC50
Procedure: (§1) PI3K kinases including p110α/p85α, p110δ/p85α and p110γ are purchased from Invitrogen, and p110β/p85α is from Millipore.
(§2) Primary screening data and IC50 values are measured using Transcreener™ KINASE Assay (Bellbrook, Catalog #3003-10K). […] It is a universal, homogenous, high throughput screening (HTS) technology using a far-red, competitive fluorescence polarization immunoassay based on the detection of ADP to monitor the activity of enzymes that catalyze group transfer reactions. Briefly, the Transcreener KINASE Assay is designed as a simple two-part, endpoint assay.
(§3) In the first step, the 25 ul kinase reaction is performed by preparing a reaction mixture containing 5 ul test compound (2% DMSO final concentration), 10 ul kinase, buffer (50 mM HEPES, 100 mM NaCl, 1 mM EGTA, 0.03% CHAPS, 3 mM MgCl2, and freshly supplemented 1 mM DTT), and 10 ul 30 uM PIP2/10 uM ATP. The plate is sealed and incubated for 80 min at room temperature. Next, 25 ul ADP detection mix is added per well. The plate is sealed again and incubated for 60 min at room temperature, and then measure fluorescence polarization by Tecan Infinite F500 Reader.
(§4) Data is analyzed and IC50s are generated using the add-in software for Microsoft Excel, Xlfit™ (version 2.0). IH %=(ADP amount under 2% DMSO-ADP amount under test compound)/ADP amount under 2% DMSO.

p110δ/p85α = p110δ/p85α (Homo sapiens, UniProt O00329); test: Transcreener KINASE Assay, kinase inhibition of p110δ/p85α; conditions: for PI3Kδ IH % @ 1 uM: 1 uM test compound; for pIC50: read-out: PI3Kδ IC50
p110δ/p85α, sequence (O00329 whole entry): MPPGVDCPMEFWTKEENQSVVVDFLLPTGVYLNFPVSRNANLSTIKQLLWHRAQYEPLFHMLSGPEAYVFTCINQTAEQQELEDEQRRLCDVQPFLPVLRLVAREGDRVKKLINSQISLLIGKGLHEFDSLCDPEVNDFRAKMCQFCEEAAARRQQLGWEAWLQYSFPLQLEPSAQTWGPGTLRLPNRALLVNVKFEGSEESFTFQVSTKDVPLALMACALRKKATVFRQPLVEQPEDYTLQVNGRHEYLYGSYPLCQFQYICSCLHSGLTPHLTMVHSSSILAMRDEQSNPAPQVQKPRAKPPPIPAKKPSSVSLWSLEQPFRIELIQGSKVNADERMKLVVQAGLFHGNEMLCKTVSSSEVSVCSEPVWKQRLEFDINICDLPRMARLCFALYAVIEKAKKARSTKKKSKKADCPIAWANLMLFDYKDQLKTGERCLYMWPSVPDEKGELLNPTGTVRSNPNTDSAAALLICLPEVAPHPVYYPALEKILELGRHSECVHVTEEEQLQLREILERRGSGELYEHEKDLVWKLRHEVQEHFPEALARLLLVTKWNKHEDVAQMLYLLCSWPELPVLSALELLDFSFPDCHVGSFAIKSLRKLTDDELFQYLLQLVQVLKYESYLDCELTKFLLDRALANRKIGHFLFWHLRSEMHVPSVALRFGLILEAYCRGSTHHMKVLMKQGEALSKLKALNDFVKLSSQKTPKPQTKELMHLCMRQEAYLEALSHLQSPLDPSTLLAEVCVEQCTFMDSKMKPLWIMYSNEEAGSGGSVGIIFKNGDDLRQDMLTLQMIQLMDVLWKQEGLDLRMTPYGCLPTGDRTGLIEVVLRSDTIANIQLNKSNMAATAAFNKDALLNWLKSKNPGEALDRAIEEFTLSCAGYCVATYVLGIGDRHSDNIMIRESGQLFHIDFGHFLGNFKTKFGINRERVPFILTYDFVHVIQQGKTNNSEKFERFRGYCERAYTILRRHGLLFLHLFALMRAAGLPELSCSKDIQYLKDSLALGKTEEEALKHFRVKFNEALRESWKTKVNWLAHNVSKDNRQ
p110δ/p85α, sequence (P27986 whole entry partner): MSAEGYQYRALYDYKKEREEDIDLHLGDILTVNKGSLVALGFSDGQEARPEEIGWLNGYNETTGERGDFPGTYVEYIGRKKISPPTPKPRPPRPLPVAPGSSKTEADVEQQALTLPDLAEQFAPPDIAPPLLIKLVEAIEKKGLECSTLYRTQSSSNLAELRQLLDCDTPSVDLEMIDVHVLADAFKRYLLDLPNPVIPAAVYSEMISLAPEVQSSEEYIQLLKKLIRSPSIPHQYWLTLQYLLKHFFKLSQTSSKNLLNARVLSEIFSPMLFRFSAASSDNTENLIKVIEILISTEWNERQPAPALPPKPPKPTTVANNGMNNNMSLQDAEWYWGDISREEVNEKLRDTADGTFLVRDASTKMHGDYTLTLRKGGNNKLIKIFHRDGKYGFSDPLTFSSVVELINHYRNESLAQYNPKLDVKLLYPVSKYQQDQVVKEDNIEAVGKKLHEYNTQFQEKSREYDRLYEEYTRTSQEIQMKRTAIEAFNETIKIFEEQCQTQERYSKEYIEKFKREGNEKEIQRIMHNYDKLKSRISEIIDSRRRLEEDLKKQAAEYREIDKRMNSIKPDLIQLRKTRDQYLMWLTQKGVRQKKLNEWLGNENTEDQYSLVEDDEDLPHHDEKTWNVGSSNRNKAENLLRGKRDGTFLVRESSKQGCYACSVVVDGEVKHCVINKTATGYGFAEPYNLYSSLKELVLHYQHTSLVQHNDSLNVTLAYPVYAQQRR
Procedure: as §1, §2, §3, §4

p110γ = p110γ (Homo sapiens, UniProt P48736); test: Transcreener KINASE Assay, kinase inhibition of p110γ; conditions: for PI3Kγ IH % @ 1 uM: 1 uM test compound; for pIC50: read-out: PI3Kγ IC50
p110γ, sequence (P48736 whole entry): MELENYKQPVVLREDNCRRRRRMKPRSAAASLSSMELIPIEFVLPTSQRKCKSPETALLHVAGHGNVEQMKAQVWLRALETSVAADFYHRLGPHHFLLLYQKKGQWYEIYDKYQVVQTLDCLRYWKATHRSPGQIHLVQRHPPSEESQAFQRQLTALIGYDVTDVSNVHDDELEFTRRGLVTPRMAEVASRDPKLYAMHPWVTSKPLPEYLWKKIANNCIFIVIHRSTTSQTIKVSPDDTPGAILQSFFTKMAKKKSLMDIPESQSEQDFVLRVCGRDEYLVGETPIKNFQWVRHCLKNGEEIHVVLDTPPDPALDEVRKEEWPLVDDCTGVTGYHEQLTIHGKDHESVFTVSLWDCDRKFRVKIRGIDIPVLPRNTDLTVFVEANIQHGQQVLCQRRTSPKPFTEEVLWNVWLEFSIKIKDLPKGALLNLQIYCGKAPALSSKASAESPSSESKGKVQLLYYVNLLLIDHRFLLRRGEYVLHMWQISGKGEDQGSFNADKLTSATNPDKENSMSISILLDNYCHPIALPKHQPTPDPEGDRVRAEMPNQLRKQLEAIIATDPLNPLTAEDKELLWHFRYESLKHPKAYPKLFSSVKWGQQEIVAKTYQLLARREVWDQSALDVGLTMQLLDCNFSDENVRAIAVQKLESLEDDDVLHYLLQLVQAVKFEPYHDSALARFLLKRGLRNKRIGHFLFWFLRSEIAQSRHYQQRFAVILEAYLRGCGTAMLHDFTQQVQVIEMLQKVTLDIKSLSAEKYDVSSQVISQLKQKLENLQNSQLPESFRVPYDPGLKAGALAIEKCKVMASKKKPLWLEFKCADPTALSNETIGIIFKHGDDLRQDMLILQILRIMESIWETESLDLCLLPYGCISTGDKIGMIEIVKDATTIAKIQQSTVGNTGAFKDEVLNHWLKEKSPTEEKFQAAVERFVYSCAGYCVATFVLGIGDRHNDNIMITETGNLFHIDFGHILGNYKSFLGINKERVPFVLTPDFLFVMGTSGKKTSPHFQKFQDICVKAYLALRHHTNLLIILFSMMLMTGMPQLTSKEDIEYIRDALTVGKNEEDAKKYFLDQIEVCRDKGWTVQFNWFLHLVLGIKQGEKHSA
Procedure: Kinase Inhibition assays of p110α/p85α, p110β/p85α, p110δ/p85α and p110γ PI3K kinases including p110α/p85α, p110δ/p85α and p110γ are purchased from Invitrogen, and p110β/p85α is from Millipore. Primary screening data and IC50 values are measured using Transcreener™ KINASE Assay (Bellbrook, Catalog #3003-10K). […] It is a universal, homogenous, high throughput screening (HTS) technology using a far-red, competitive fluorescence polarization immunoassay based on the detection of ADP to monitor the activity of enzymes that catalyze group transfer reactions. Briefly, the Transcreener KINASE Assay is designed as a simple two-part, endpoint assay. […] The plate is sealed and incubated for 80 min at room temperature. Next, 25 ul ADP detection mix is added per well. The plate is sealed again and incubated for 60 min at room temperature, and then measure fluorescence polarization by Tecan Infinite F500 Reader. Data is analyzed and IC50s are generated using the add-in software for Microsoft Excel, Xlfit™ (version 2.0).

p110β/p85α, sequence (P42338 whole entry): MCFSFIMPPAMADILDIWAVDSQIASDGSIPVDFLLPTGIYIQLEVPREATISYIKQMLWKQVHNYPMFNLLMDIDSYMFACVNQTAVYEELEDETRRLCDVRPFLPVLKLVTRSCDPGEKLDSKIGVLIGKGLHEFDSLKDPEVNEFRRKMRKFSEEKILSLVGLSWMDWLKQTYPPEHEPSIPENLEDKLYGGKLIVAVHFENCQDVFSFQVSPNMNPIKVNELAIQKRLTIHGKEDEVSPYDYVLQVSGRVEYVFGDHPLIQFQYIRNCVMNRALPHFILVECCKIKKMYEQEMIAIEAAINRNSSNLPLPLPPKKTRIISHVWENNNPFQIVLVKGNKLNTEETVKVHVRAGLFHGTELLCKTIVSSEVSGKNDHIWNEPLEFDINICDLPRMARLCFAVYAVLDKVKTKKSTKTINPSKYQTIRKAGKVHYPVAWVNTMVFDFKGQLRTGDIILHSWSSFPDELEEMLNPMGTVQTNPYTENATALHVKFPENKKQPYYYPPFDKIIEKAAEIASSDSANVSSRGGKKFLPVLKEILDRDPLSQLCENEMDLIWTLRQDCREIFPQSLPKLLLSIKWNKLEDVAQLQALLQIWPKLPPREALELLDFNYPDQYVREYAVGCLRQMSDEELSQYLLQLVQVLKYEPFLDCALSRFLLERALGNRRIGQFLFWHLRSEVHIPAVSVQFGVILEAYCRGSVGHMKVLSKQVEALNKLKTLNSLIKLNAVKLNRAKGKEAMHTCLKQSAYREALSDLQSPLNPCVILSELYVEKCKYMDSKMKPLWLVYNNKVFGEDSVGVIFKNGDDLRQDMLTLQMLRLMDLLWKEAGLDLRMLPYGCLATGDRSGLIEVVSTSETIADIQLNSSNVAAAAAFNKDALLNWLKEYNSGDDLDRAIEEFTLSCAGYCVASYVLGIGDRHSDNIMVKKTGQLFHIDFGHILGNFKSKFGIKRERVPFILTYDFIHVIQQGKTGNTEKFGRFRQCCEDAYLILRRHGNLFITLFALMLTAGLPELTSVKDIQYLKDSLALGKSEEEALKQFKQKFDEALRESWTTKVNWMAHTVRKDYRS
p110β/p85α, sequence (P27986 2-724 partner): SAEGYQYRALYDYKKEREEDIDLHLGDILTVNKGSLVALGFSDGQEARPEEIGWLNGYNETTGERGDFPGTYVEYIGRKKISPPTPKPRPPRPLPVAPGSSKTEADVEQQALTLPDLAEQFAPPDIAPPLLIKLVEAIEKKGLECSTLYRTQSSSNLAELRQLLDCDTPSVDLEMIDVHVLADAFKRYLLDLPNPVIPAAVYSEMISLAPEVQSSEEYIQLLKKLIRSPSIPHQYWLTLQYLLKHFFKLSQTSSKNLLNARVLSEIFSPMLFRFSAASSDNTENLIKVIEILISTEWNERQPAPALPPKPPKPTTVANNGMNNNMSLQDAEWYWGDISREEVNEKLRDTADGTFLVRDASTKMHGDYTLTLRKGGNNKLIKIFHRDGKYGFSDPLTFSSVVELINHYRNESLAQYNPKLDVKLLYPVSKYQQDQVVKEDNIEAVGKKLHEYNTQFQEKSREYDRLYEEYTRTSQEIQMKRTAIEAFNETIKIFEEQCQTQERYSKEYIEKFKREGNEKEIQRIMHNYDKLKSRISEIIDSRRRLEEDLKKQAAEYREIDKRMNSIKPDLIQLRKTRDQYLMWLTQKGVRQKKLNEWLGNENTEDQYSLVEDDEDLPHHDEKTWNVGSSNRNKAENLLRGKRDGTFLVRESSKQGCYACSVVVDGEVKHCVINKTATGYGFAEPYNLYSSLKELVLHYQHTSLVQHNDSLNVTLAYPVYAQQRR

Structure (SMILES) | PI3Kβ IH % @ 1 uM (p110β/p85α) [%] | PI3Kδ IH % @ 1 uM (p110δ/p85α) [%] | PI3Kγ IH % @ 1 uM (p110γ) [%] | pIC50 (p110β/p85α) | pIC50 (p110δ/p85α) | pIC50 (p110γ)
N#Cc1cccc(-n2c([C@@H]3CCCN3c3ncnc4[nH]cc(C#N)c34)nn3ccc(Cl)c3c2=O)c1 [Compound 39] | 20.7 | 94.2 | 16.5 | – | – | –
N#Cc1cccc(-n2c([C@@H]3CCCN3c3ncnc4[nH]cnc34)nn3ccc(Cl)c3c2=O)c1 [Compound 40] | 19.8 | 74.0 | 6.5 | – | – | –
O=c1c2c(Cl)ccn2nc([C@@H]2CCCN2c2ncnc3[nH]cnc23)n1-c1ccc(F)cc1 [Compound 41] | 80.2 | 91.7 | >100 | 7.18 | 8.22 | 7.68
Cc1ccn2nc([C@@H]3CCCN3c3ncnc(N)c3Cl)n(-c3ccccc3)c(=O)c12 [Compound 45] | 71.9 | 100 | 80.9 | 6.10 | – | 6.76
N#Cc1c[nH]c2ncnc(N3CC[C@H]3c3nn4ccc(F)c4c(=O)n3-c3ccccc3)c12 [Compound 46] | 33.8 | >100 | 68.1 | – | 7.85 | –
O=c1c2c(Cl)ccn2nc([C@@H]2C[C@@H](F)CN2c2ncnc3[nH]cnc23)n1-c1ccccc1 [Compound 47] | 47.3 | >100 | 84.7 | – | 7.59 | 6.82
N#Cc1c[nH]c2ncnc(N3C[C@H](F)C[C@H]3c3nn4ccc(Cl)c4c(=O)n3-c3ccccc3)c12 [Compound 48] | 69.7 | 98.4 | 86.1 | 6.30 | 8.40 | 7.24
Nc1nc(N2CCC[C@H]2c2nn3ccc(Cl)c3c(=O)n2-c2ccccc2)ncc1C(F)(F)F [Compound 49] | −4.8 | 8.4 | 8.9 | – | – | –
Nc1ncc(C(F)(F)F)c(N2CCC[C@H]2c2nn3ccc(Cl)c3c(=O)n2-c2ccccc2)n1 [Compound 50] | 4.4 | >100 | 89.3 | – | 7.54 | 6.83
O=c1c2c(C3CC3)ccn2nc([C@@H]2CCCN2c2ncnc3[nH]cnc23)n1-c1ccccc1 [Compound 51] | −7.4 | 80.1 | 89.1 | – | 6.46 | 6.53
N#Cc1c[nH]c2ncnc(N3CCC[C@H]3c3nn4ccc(C5CC5)c4c(=O)n3-c3ccccc3)c12 [Compound 52] | 8.8 | 87.2 | 89.3 | – | 6.96 | 6.97
Nc1nc(N2CCC[C@H]2c2nn3ccc(C4CC4)c3c(=O)n2-c2ccccc2)c2nc[nH]c2n1 [Compound 53] | −11.0 | 68.8 | 86.4 | – | – | 7.46
Nc1nc2cccc(N3CCC[C@H]3c3nn4ccc(Cl)c4c(=O)n3-c3ccccc3)n2n1 [Compound 54] | 26.0 | 90.1 | 11.9 | – | 6.68 | –
N#Cc1c[nH]c2ncnc(N3CC[C@H]3c3nn4ccc(Br)c4c(=O)n3-c3ccccc3)c12 [Compound 55] | 23.8 | 97.6 | 99.5 | – | 8.10 | 7.17
O=c1c2c(Br)ccn2nc([C@@H]2CCN2c2ncnc3[nH]cnc23)n1-c1ccccc1 [Compound 56] | 21.7 | 91.1 | 83.9 | – | – | –
O=c1c2c(Cl)ccn2nc([C@@H]2CC(F)(F)CN2c2ncnc3[nH]cnc23)n1-c1ccccc1 [Compound 57] | 37.1 | 98.2 | 88.3 | – | 7.89 | 6.62
N#Cc1c[nH]c2ncnc(N3CC(F)(F)C[C@H]3c3nn4ccc(Cl)c4c(=O)n3-c3ccccc3)c12 [Compound 58] | 45.5 | >100 | 97.6 | – | 8.30 | 7.14
N#Cc1c[nH]c2ncnc(N3CC[C@H]3c3nn4ccc(Cl)c4c(=O)n3CC(F)F)c12 [Compound 59, (S)-4-(2-(5-chloro-3-(2,2-difluoroethyl)-4-oxo-3,4-dihydropyrrolo[2,1-f][1,2,4]triazin-2-yl)azetidin-1-yl)-7H-pyrrolo[2,3-d]pyrimidine-5-carbonitrile] | 34.7 | 73.6 | 45.8 | – | 6.41 | –
N#Cc1c[nH]c2ncnc(N3CC[C@H]3c3nn4ccc(Cl)c4c(=O)n3Cc3ccccn3)c12 [Compound 60] | 3.2 | 69.0 | 29.5 | – | 6.49 | –
N#Cc1c[nH]c2ncnc(N3CC[C@H]3c3nn4ccc(Cl)c4c(=O)n3Cc3cccnc3)c12 [Compound 61] | 7.9 | 73.9 | 45.1 | – | 6.51 | –
Cn1c([C@@H]2CCCN2c2ncnc3[nH]cc(C#N)c23)nn2ccc(Cl)c2c1=O [Compound 63] | 93.7 | 97.7 | >100 | 7.21 | – | 7.09
N#Cc1c[nH]c2ncnc(N3CCC[C@H]3c3nn4ccc(Cl)c4c(=O)n3CC(F)(F)F)c12 [Compound 67] | 71.3 | 98.1 | 61.0 | 6.73 | 8.15 | –
O=c1c2c(Cl)ccn2nc([C@@H]2CCCN2c2ncnc3[nH]cnc23)n1Cc1ccccn1 [Compound 68] | 52.1 | 98.5 | 73.8 | – | 7.55 | 7.11
N#Cc1c[nH]c2ncnc(N3C[C@@H](O)C[C@H]3c3nn4ccc(Cl)c4c(=O)n3-c3ccccc3)c12 [Compound 71] | >100 | >100 | >100 | 7.51 | 9.00 | 8.05
CO[C@@H]1C[C@@H](c2nn3ccc(Cl)c3c(=O)n2-c2ccccc2)N(c2ncnc3[nH]cnc23)C1 [Compound 72, 5-chloro-2-((2S,4R)-4-methoxy-1-(9H-purin-6-yl)pyrrolidin-2-yl)-3-phenylpyrrolo[2,1-f][1,2,4]triazin-4(3H)-one] | 13.5 | 91.6 | 49.5 | – | 7.06 | –
